In ChEMBL document CHEMBL5550178, “Synthesis and anticancer properties of novel dolastatin 10 analogs featuring five-membered heterocyclic rings with a linkable group at the C-terminus” (Bioorg Med Chem, 2024):
Non-standard residues stand in square brackets, D forms with d. Residues, ends and D or L forms follow the SMILES beside them. Dolaproine = CO[C@@H]([C@@H]1CCCN1)[C@@H](C)C(=O)O; Dil = CC[C@H](C)[C@H](NC)[C@@H](CC(=O)O)OC; NMeV = CN[C@H](C(=O)O)C(C)C

Tests used:
[1] = Drug uptake in human PC-3 cells assessed as increase in fluorescence intensity at upto 1000 nM by Hoechst nuclear dye based fluorescent microscopic analysis; type: ADME, cell-based; details: pc-3, 1 µM
PC-3 [2] = assay: Induction of cell cycle arrest in human PC-3 cells assessed as accumulation of cells at G1/G0 phase at 1000 nM measured after 6 days by PI staining based flow cytometry analysis (reference value: 79.8%); type: functional; details: time 6 day
PC-3 [3] = assay: Induction of cell cycle arrest in human PC-3 cells assessed as accumulation of cells at G2/M phase at 1000 nM measured after 6 days by PI staining based flow cytometry analysis (reference value: 9.96%); type: functional; details: time 6 day
PC-3 [4] = assay: Induction of cell cycle arrest in human PC-3 cells assessed as accumulation of cells at G1/G0 phase at 1 nM measured after 8 days by PI staining based flow cytometry analysis (reference value: 73.2%); type: functional; details: time 8 day
PC-3 [5] = assay: Induction of cell cycle arrest in human PC-3 cells assessed as accumulation of cells at S phase at 50 nM measured after 6 days by PI staining based flow cytometry analysis (reference value: 8.60%); type: functional; details: time 6 day
PC-3 [6] = assay: Induction of cell cycle arrest in human PC-3 cells assessed as accumulation of cells at S phase at 1000 nM measured after 6 days by PI staining based flow cytometry analysis (reference value: 8.60%); type: functional; details: time 6 day
PC-3 [7] = assay: Induction of cell cycle arrest in human PC-3 cells assessed as accumulation of cells at G2/M phase at 50 nM measured after 6 days by PI staining based flow cytometry analysis (reference value: 9.96%); type: functional; details: time 6 day
PC-3 [8] = assay: Induction of cell cycle arrest in human PC-3 cells assessed as accumulation of cells at G2/M phase at 50 nM measured after 4 days by PI staining based flow cytometry analysis (reference value: 10.7%); type: functional; details: time 4 day
PC-3 [9] = assay: Induction of cell cycle arrest in human PC-3 cells assessed as accumulation of cells at G1/G0 phase at 50 nM measured after 4 days by PI staining based flow cytometry analysis (reference value: 67.6%); type: functional; details: time 4 day
PC-3 [10] = assay: Induction of cell cycle arrest in human PC-3 cells assessed as accumulation of cells at G2/M phase at 1 nM measured after 8 days by PI staining based flow cytometry analysis (reference value: 13.9%); type: functional; details: time 8 day
PC-3 [11] = assay: Induction of cell cycle arrest in human PC-3 cells assessed as accumulation of cells at G2/M phase at 1000 nM measured after 8 days by PI staining based flow cytometry analysis (reference value: 13.9%); type: functional; details: time 8 day
PC-3 [12] = assay: Induction of cell cycle arrest in human PC-3 cells assessed as accumulation of cells at G1/G0 phase at 1000 nM measured after 8 days by PI staining based flow cytometry analysis (reference value: 73.2%); type: functional; details: time 8 day
PC-3 [13] = assay: Induction of cell cycle arrest in human PC-3 cells assessed as accumulation of cells at S phase at 50 nM measured after 8 days by PI staining based flow cytometry analysis (reference value: 12.9%); type: functional; details: time 8 day
PC-3 [14] = assay: Induction of cell cycle arrest in human PC-3 cells assessed as accumulation of cells at G1/G0 phase at 50 nM measured after 8 days by PI staining based flow cytometry analysis (reference value: 73.2%); type: functional; details: time 8 day
PC-3 [15] = assay: Induction of cell cycle arrest in human PC-3 cells assessed as accumulation of cells at G2/M phase at 50 nM measured after 8 days by PI staining based flow cytometry analysis (reference value: 13.9%); type: functional; details: time 8 day
PC-3 [16] = assay: Induction of cell cycle arrest in human PC-3 cells assessed as accumulation of cells at G2/M phase at 1 nM measured after 6 days by PI staining based flow cytometry analysis (reference value: 9.96%); type: functional; details: time 6 day
PC-3 [17] = assay: Induction of cell cycle arrest in human PC-3 cells assessed as accumulation of cells at S phase at 50 nM measured after 4 days by PI staining based flow cytometry analysis (reference value: 17.9%); type: functional; details: time 4 day
PC-3 [18] = assay: Induction of cell cycle arrest in human PC-3 cells assessed as accumulation of cells at G2/M phase at 1 nM measured after 4 days by PI staining based flow cytometry analysis (reference value: 10.7%); type: functional; details: time 4 day
PC-3 [19] = assay: Induction of cell cycle arrest in human PC-3 cells assessed as accumulation of cells at G1/G0 phase at 1 nM measured after 4 days by PI staining based flow cytometry analysis (reference value: 67.6%); type: functional; details: time 4 day
PC-3 [20] = assay: Induction of cell cycle arrest in human PC-3 cells assessed as accumulation of cells at S phase at 1000 nM measured after 8 days by PI staining based flow cytometry analysis (reference value: 12.9%); type: functional; details: time 8 day
PC-3 [21] = assay: Induction of cell cycle arrest in human PC-3 cells assessed as accumulation of cells at G1/G0 phase at 50 nM measured after 6 days by PI staining based flow cytometry analysis (reference value: 79.8%); type: functional; details: time 6 day
PC-3 [22] = assay: Induction of cell cycle arrest in human PC-3 cells assessed as accumulation of cells at G2/M phase at 1000 nM measured after 4 days by PI staining based flow cytometry analysis (reference value: 10.7%); type: functional; details: time 4 day
PC-3 [23] = assay: Induction of cell cycle arrest in human PC-3 cells assessed as accumulation of cells at S phase at 1 nM measured after 4 days by PI staining based flow cytometry analysis (reference value: 17.9%); type: functional; details: time 4 day
PC-3 [24] = assay: Induction of cell cycle arrest in human PC-3 cells assessed as accumulation of cells at S phase at 1 nM measured after 8 days by PI staining based flow cytometry analysis (reference value: 12.9%); type: functional; details: time 8 day
PC-3 [25] = assay: Induction of cell cycle arrest in human PC-3 cells assessed as accumulation of cells at G1/G0 phase at 1000 nM measured after 4 days by PI staining based flow cytometry analysis (reference value: 67.6%); type: functional; details: time 4 day
PC-3 [26] = assay: Induction of cell cycle arrest in human PC-3 cells assessed as accumulation of cells at G1/G0 phase at 1 nM measured after 6 days by PI staining based flow cytometry analysis (reference value: 79.8%); type: functional; details: time 6 day
PC-3 [27] = assay: Induction of cell cycle arrest in human PC-3 cells assessed as accumulation of cells at S phase at 1 nM measured after 6 days by PI staining based flow cytometry analysis (reference value: 8.60%); type: functional; details: time 6 day
PC-3 [28] = assay: Induction of cell cycle arrest in human PC-3 cells assessed as accumulation of cells at S phase at 1000 nM measured after 4 days by PI staining based flow cytometry analysis (reference value: 17.9%); type: functional; details: time 4 day

For `CC[C@H](C)[C@@H]([C@@H](CC(=O)N1CCC[C@H]1[C@H](OC)[C@@H](C)C(=O)N[C@@H](Cc1ccccc1)c1nc(CNC(=O)CCC(=O)N2CCN(C(=O)c3ccccc3-c3c4ccc(=[N+](CC)CC)cc-4oc4cc(N(CC)CC)ccc34)CC2)cs1)OC)N(C)C(=O)[C@@H](NC(=O)[C@H](C(C)C)N(C)C)C(C)C` (stereo in doubt), which Drug uptake [1] is on record?
Its Drug uptake is “Active”.

Which results are given for `CC[C@H](C)[C@@H]([C@@H](CC(=O)N1CCC[C@H]1[C@H](OC)[C@@H](C)C(=O)N[C@@H](Cc1ccccc1)C(=O)O)OC)N(C)C(=O)[C@@H](NC(=O)[C@@H](NC)C(C)C)C(C)C` (H-[NMeV]V[Dil][Dolaproine]F-OH)?
Activity (PC-3 [2]): 44.7%; Activity (PC-3 [3]): 3.87%; Activity (PC-3 [4]): 65.8%; Activity (PC-3 [5]): 20.2%; Activity (PC-3 [6]): 47.6%; Activity (PC-3 [7]): 5.39%; Activity (PC-3 [8]): 8.23%; Activity (PC-3 [9]): 58.5%; Activity (PC-3 [10]): 17.2%; Activity (PC-3 [11]): 12.6%; Activity (PC-3 [12]): 27.5%; Activity (PC-3 [13]): 32%; Activity (PC-3 [14]): 50.8%; Activity (PC-3 [15]): 18.4%; Activity (PC-3 [16]): 10.6%; Activity (PC-3 [17]): 30.1%; Activity (PC-3 [18]): 7.89%; Activity (PC-3 [19]): 68.9%; Activity (PC-3 [20]): 60.7%; Activity (PC-3 [21]): 70.6%; Activity (PC-3 [22]): 3.87%; Activity (PC-3 [23]): 20.8%; Activity (PC-3 [24]): 19%; Activity (PC-3 [25]): 44.7%; Activity (PC-3 [26]): 75.5%; Activity (PC-3 [27]): 11.8%; Activity (PC-3 [28]): 47.6%
